# Experimental data: article PMC10711165, “DNA conformational dynamics in the context-dependent non-CG CHH methylation by plant methyltransferase DRM2” (The Journal of Biological Chemistry, 2023)
# Biological target: T1, DRM2 MTase domain (DOMAINS REARRANGED METHYLTRANSFERASE 2) (Arabidopsis thaliana, UniProt Q9M548)
# T1 construct: MTase domain, residues 270-626, His6-SUMO tag cleaved by ULP1, expressed in E. coli BL21 DE3 (RIL); residues 275-626 traced in crystal
# T1 sequence (Q9M548 270-626): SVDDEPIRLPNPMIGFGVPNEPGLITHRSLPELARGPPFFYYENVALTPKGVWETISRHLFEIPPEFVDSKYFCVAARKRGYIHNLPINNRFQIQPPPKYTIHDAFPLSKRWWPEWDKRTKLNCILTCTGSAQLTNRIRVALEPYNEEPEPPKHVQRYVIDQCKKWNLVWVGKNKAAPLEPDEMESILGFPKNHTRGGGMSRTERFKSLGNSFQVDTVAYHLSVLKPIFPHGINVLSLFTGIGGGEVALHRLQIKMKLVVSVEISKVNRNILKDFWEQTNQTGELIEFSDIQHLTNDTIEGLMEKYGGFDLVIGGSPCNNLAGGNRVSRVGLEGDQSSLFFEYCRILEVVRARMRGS
# Assay: X-ray crystallography, […] A
# Assay type: binding
# Conditions: covalent complex of protein C587 with 18-mer 5-fluorocytosine CTA DNA duplex; SAH at the cofactor site; crystals at 4 °C, 1 mM SAH
smiles,measurement,value
Nc1ncnc2c1ncn2[C@@H]1O[C@H](CSCC[C@H](N)C(=O)O)[C@@H](O)[C@H]1O [S-adenosyl-homocysteine],"X-ray crystallography, 2.91 A",The crystal structure of the DRM2-CTA complex bound to cofactor by-product S-adenosyl-homocysteine (SAH)
